Test results taken from US20210317099A1, “SAFER, POTENT, AND FAST ACTING ANTIMICROBIAL AGENTS” (Purdue Research Foundation, priority 2020, published 2021).
≈ marks a conversion by molar mass, not a printed value. Where two headings read alike, the source gives them in different places.

Columns and labels:
[1] = system: Staphylococcus aureus NRS384 (MRSA USA300); test: Initial MIC screening, broth microdilution (CLSI); assay type: cell-based; conditions: for MIC: Staphylococcus aureus NRS384 (MRSA USA300), broth microdilution, visual reading
Method: Method: The minimum inhibitory concentration (MIC) of the compounds 1-187, and control antibiotics (vancomycin, linezolid) was determined using the broth microdilution method against methicillin-resistant Staphylococcus aureus (MRSA) USA 300 using the broth microdilution method according to the guidelines outlined by the Clinical and Laboratory Standards Institute (CLSI). MRSA strain was cultivated on Tryptic soy agar plates and let grow for 24 hours at 37° C. under aerobic conditions. Bacterial suspension equivalent to 0.5 McFarland standard was prepared and diluted in cation-adjusted Mueller-Hinton broth (CAMHB) to attain a bacterial concentration of 5×10^5 CFU/ml and seeded in 96-well plates. The desired concentrations of each drug and compound were added in the first row of the 96-well plates and serially diluted to achieve a concentration gradient from 64 μg/ml to 0.5 μg/mL.

[2] = system: Enterococcus faecalis ATCC 51299 (VRE); test: MIC, Gram-positive panel; assay type: cell-based
Method: (§1) Next, the spectrum of antibacterial activity of compounds 144, 148, 149, 151, 155, 158, and 187 was examined against a panel of clinically relevant Gram-positive bacterial pathogens including methicillin-resistant Staphylococcus aureus (MRSA), vancomycin-resistant Staphylococcus aureus (VRSA), vancomycin-resistant Enterococcus faecalis and Enterococcus faecium (VRE), and Streptococcus pneumoniae. Bacterial strains were grown aerobically overnight on tryptone soya agar plates at 37° C. Afterwards, a bacterial solution equivalent to 0.5 McFarland standard was prepared and diluted in cation-adjusted Mueller-Hinton broth (CAMHB) (for staphylococci). Enterococci and Streptococci were diluted in tryptone soya broth (TSB) to achieve a bacterial concentration of about 5×10^5 CFU/mL and seeded in 96-well plates. Compounds and control drugs were added in the first row of 96-well plates and serially diluted with media containing bacteria. Plates were then, incubated aerobically at 37° C. for 18-20 hours (except for S. pneumoniae, which was incubated at 37° C. in presence of 5% CO2 for 18-20 hours).

[3] = system: Enterococcus faecium ATCC 700221 (VRE); test: MIC, Gram-positive panel; assay type: cell-based
Method: as §1

[4] = system: MRSA NRS 119; test: MIC, Gram-positive panel; assay type: cell-based; conditions: Staphylococcus aureus
Method: as §1

[5] = system: MRSA NRS 123; test: MIC, Gram-positive panel; assay type: cell-based; conditions: Staphylococcus aureus
Method: as §1

[6] = system: MRSA NRS 385; test: MIC, Gram-positive panel; assay type: cell-based; conditions: Staphylococcus aureus
Method: as §1

[7] = system: MRSA NRS 386; test: MIC, Gram-positive panel; assay type: cell-based; conditions: Staphylococcus aureus
Method: as §1

[8] = system: Methicillin-resistant S. epidermidis NRS101; test: MIC, Gram-positive panel; assay type: cell-based; conditions: Staphylococcus epidermidis
Method: as §1

[9] = system: Methicillin-resistant S. pneumoniae ATCC 700677; test: MIC, Gram-positive panel; assay type: cell-based; conditions: Streptococcus pneumoniae, ATCC700677
Method: as §1

[10] = system: S. aureus ATCC 6538; test: MIC, Gram-positive panel; assay type: cell-based; conditions: Staphylococcus aureus, ATCC6538
Method: as §1

[11] = system: S. aureus NRS 107; test: MIC, Gram-positive panel; assay type: cell-based; conditions: Staphylococcus aureus, NRS107
Method: as §1

[12] = system: S. pneumoniae ATCC 51916; test: MIC, Gram-positive panel; assay type: cell-based; conditions: Streptococcus pneumoniae, ATCC51916
Method: as §1

[13] = system: VRSA 10; test: MIC, Gram-positive panel; assay type: cell-based; conditions: Staphylococcus aureus
Method: as §1

[14] = system: VRSA 12; test: MIC, Gram-positive panel; assay type: cell-based; conditions: Staphylococcus aureus
Method: as §1

[15] = system: MRSA USA 400; test: Time-kill assay; assay type: cell-based, Staphylococcus aureus; conditions: 5×MIC; for time required for complete eradication of the bacterial count: MRSA USA 400, 24-hour incubation
Method: In order to the mode of killing of methylene lactone compounds, a time kill assay was performed against MRSA USA 400 as described previously. MRSA USA400 cells in logarithmic growth phase (OD600˜1.00) were diluted to 6.03×10^6 colony-forming units (CFU/mL) and exposed to concentrations equivalent to 5×MIC (in triplicate) of 148, 149, 151, 155, 158 and vancomycin in Tryptic soy broth. Aliquots (100 μL) were collected from each treatment after 0, 2, 4, 6, 8, 12, and 24 hours of incubation at 37° C. and subsequently serially diluted in PBS. Bacteria were then transferred to Tryptic soy agar plates and incubated at 37° C. for 18-20 hours before viable CFU/mL was determined (FIG. 1).
DMSO (solvent for the compounds) served as a negative control and vancomycin served as a control drug. The error bars represent standard deviation values obtained from triplicate samples used for each compound/antibiotic studied.

[16] = system: total proteases production in MRSA USA300; test: Inhibition of staphylococcal total proteases production, skimmed milk method; assay type: cell-based, Staphylococcus aureus; conditions: MRSA USA300, 0.25×MIC, untreated = 100%
Method: The modified skimmed milk method was utilized to investigate the protease inhibitory activities of BHS compounds as described previously. In brief, overnight culture of MRSA300 in TSB, with and without subinhibitory concentrations of compounds (in triplicate), was centrifuged at 14000×g for 10 minutes. Then, a total volume of 500 μL of culture supernatant was incubated with 1 mL skimmed milk (1.25%) at 37° C. for 1 hour. Afterwards, the OD600 was measured to indicate the degree of clearance of skimmed milk. Higher OD values indicate lower proteolytic activity and greater protease inhibitory activity.
FIG. 4. Influence of BHS compounds on the staphylococcal total protease production. OD600 was measured following overnight culturing of MRSA USA300 in TSB in presence and absence of 0.25×MIC of 148, 149, 155, 158 and vancomycin followed by incubation of supernatants with skim milk for 1 hour at 37° C. The Data are presented as percent production (means±standard deviation). DMSO (the solvent for the compounds that served as a negative control). Vancomycin served as the control antibiotic. The values represent an average (means±standard deviation) of four samples analyzed for each compound/antibiotic. Error bars represent standard deviation values. An asterisk (*) denotes statistical significance (P<0.05) between results for compounds 148, 149, 155, 158 and vancomycin analyzed via unpaired t test ([…]).

[17] = system: intracellular MRSA USA400 inside murine macrophage (J774) cells; test: Clearance of intracellular MRSA in infected J774 macrophages; assay type: cell-based, Staphylococcus aureus; conditions: 24 hours, J774 infected with MRSA USA400
Method: The ability of the compound 148 to reduce the burden of intracellular MRSA was evaluated utilizing previously described methods. Murine macrophage cells (J774) were cultured in Dulbecco's Modified Eagle Medium (DMEM) supplemented with 10% FBS at 37° C. with CO2 (5%). J774 cells were exposed to MRSA USA400 cells at a multiplicity of infection of approximately 10:1. After 1 hour of infection, J774 cells were washed with gentamicin (200 μg/mL) to kill extracellular MRSA. The compounds or vancomycin (at 4×MIC and 8×MIC) were subsequently added to each well (four replicates per test agent). Control cells received DMSO at a concentration equal to that in drug-treated cell samples. After 24 hours-incubation at 37° C. with 5% CO2, the test agents were removed. J774 cells were washed and subsequently lysed using 0.1% Triton-X. The solution was serially diluted in phosphate-buffered saline and transferred to TSA plates in order to determine viable MRSA CFU inside the J774 cells. Plates were incubated at 37° C. for 18-22 hour before counting viable CFU/mL. Statistical significance was assessed with two-way ANOVA, with post hoc Dunnet's multiple comparisons test (P<0.05), utilizing GraphPad Prism 6.0 (GraphPad Software, La Jolla, Calif.).
FIG. 6. Examination of the activity of compounds 148 on the clearance of intracellular MRSA present inside infected murine macrophage (J774) cells. […] Data were analyzed via two-way ANOVA, with post hoc Dunnet's multiple comparisons test (P<0.05), utilizing GraphPad Prism 6.0 (GraphPad Software, La Jolla, Calif.). Asterisks (*) represent significant difference between treatment of J774 cells with compound 148 in comparison to vancomycin.

[18] = Enterococcus faecalis ATCC 51299 (VRE), read-out: MIC
[19] = Enterococcus faecium ATCC 700221 (VRE), read-out: MIC
[20] = Methicillin-resistant S. epidermidis NRS101, read-out: MIC
[21] = Methicillin-resistant S. pneumoniae ATCC 700677, read-out: MIC
[22] = S. aureus ATCC 6538, read-out: MIC
[23] = S. aureus NRS 107, read-out: MIC
[24] = S. pneumoniae ATCC 51916, read-out: MIC

| Compound | MIC [2, 18] | MIC [3, 19] | MIC ([4]; MRSA NRS 119, read-out: MIC) | MIC ([5]; MRSA NRS 123, read-out: MIC) | MIC ([6]; MRSA NRS 385, read-out: MIC) | MIC ([7]; MRSA NRS 386, read-out: MIC) | MIC [8, 20] | MIC [9, 21] | MIC [10, 22] | MIC [11, 23] | MIC [12, 24] | MIC ([13]; VRSA 10, read-out: MIC) | MIC ([14]; VRSA 12, read-out: MIC) | time required for complete eradication of the bacterial count [15] | total protease production [16] | further results |
| --- | --- | --- | --- | --- | --- | --- | --- | --- | --- | --- | --- | --- | --- | --- | --- | --- |
| C=C(C(=O)OC)C(c1ccc2ccccc2c1)C(O)c1ccc2ccccc2c1 (centres unmarked) [Compound 149] | > 64 µg/mL | > 64 µg/mL | 1 µg/mL (≈ 2.61 µM) | 1 µg/mL (≈ 2.61 µM) | 1 µg/mL (≈ 2.61 µM) | 1 µg/mL (≈ 2.61 µM) | 2 µg/mL (≈ 5.23 µM) | 4 µg/mL (≈ 10.5 µM) | 1 µg/mL (≈ 2.61 µM) | 1 µg/mL (≈ 2.61 µM) | 4 µg/mL (≈ 10.5 µM) | 8 µg/mL (≈ 20.9 µM) | 16 µg/mL (≈ 41.8 µM) | not able to completely eradicate it after 24 hours | 63% | potency compared with control antibiotic ([1]; MRSA USA300, Table 1 assay): potency comparable to vancomycin; MIC [1]: 2 µg/mL (≈ 5.23 µM); MIC ([1]; Staphylococcus aureus, read-out: MIC): 1 to 2 µg/mL (≈ 2.61 to 5.23 µM); reduction in the bacterial count after 6 hours ([15]; MRSA USA 400, after 6 hours): 3 log10; reduction in the bacterial count after 6 hours (percent) ([15]; MRSA USA 400, after 6 hours): 99.9% |
| CC(=O)NC[C@H]1CN(c2ccc(N3CCOCC3)c(F)c2)C(=O)O1 [linezolid, reference compound] | 2 µg/mL (≈ 5.93 µM) | 1 µg/mL (≈ 2.96 µM) | > 16 µg/mL | 2 µg/mL (≈ 5.93 µM) | 2 µg/mL (≈ 5.93 µM) | 2 µg/mL (≈ 5.93 µM) | 1 µg/mL (≈ 2.96 µM) | 2 µg/mL (≈ 5.93 µM) | 2 µg/mL (≈ 5.93 µM) | 1 µg/mL (≈ 2.96 µM) | 2 µg/mL (≈ 5.93 µM) | 1 µg/mL (≈ 2.96 µM) | 1 µg/mL (≈ 2.96 µM) |  |  |  |
| CN[C@H](CC(C)C)C(=O)N[C@H]1C(=O)N[C@@H](CC(N)=O)C(=O)N[C@H]2C(=O)N[C@H]3C(=O)N[C@H](C(=O)N[C@H](C(=O)O)c4cc(O)cc(O)c4-c4cc3ccc4O)[C@H](O)c3ccc(c(Cl)c3)Oc3cc2cc(c3O[C@@H]2O[C@H](CO)[C@@H](O)[C@H](O)[C@H]2O[C@H]2C[C@](C)(N)[C@H](O)[C@H](C)O2)Oc2ccc(cc2Cl)[C@H]1O [vancomycin, reference compound] |  |  |  |  |  |  |  |  |  |  |  |  |  | 12 h | ineffective | MIC ([2]; Enterococcus faecalis): 32 µg/mL (≈ 22.1 µM); MIC ([3]; Enterococcus faecium): > 64 µg/mL; MIC [4]: 1 µg/mL (≈ 0.69 µM); MIC [5]: 1 µg/mL (≈ 0.69 µM); MIC [6]: 1 µg/mL (≈ 0.69 µM); MIC [7]: 1 µg/mL (≈ 0.69 µM); MIC ([8]; NRS101): 2 µg/mL (≈ 1.38 µM); MIC [9]: 2 µg/mL (≈ 1.38 µM); MIC [10]: 1 µg/mL (≈ 0.69 µM); MIC [11]: 2 µg/mL (≈ 1.38 µM); MIC [12]: 2 µg/mL (≈ 1.38 µM); MIC ([13]; VRSA): > 64 µg/mL; MIC ([14]; VRSA): > 64 µg/mL; reduction of intracellular MRSA ([17]; 4 μg/mL): not able to reduce; reduction of intracellular MRSA ([17]; 8 μg/mL): not able to reduce |
